# Test results from patent publication US20250282799A1, “SUBSTITUTED PYRIDO[4,3-d]PYRIMIDINES AS KRAS MODULATORS” (Alterome Therapeutics, Inc., priority 2023, published 2025).
# pIC50: −log10 of the molar value.
# System: KRAS G12V dependent lung adenocarcinoma cell line, NCI-H441
# Assay: Cellular pERK (Thr202/Tyr204) FRET/HTRF assay
# Format: cell-based
# Conditions: Homo sapiens, NCI-H441, cellular pERK (Thr202/Tyr204) HTRF, NCI-H441 cells
# How it was run: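 Using a mix-and-read HTRF kit, phospho-ERK (Thr202/Tyr204) was detected in NCI-H441 lysates following 1 hr compound incubation at 37 °C, 5% CO2. Cells had been seeded overnight beforehand, and IC50 was derived by curve fitting.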
row,pIC50,Compound
1,> 7.30,"[2H]C([2H])(F)Oc1c(F)cc(F)c2cc(N)cc(-c3ncc4c(N5CCOC[C@H]6[C@H](F)[C@H]65)nc(OC([2H])([2H])[C@@]56CCCN5C[C@H](F)C6)nc4c3F)c12 [Example 139, 6,8-difluoro-4-(8-fluoro-4-((1S,7S,8S)-8-fluoro-5-oxa-2-azabicyclo[5.1.0]octan-2-yl)-2-(((2R,7aS)-2-fluorotetrahydro-1H-pyrrolizin-7a(5H)-yl)methoxy-d2)pyrido[4,3-d]pyrimidin-7-yl)-5-(fluoromethoxy-d2)naphthalen-2-amine]"
2,> 7.30,"[2H]C([2H])(Oc1nc(N2CCOC[C@H]3[C@H](F)[C@H]32)c2cnc(-c3cc(N)c(F)c(C)c3C(F)(F)F)c(F)c2n1)[C@@]12CCCN1C[C@H](F)C2 [Example 167, 2-Fluoro-5-(8-fluoro-4-((1S,7S,8S)-8-fluoro-5-oxa-2-azabicyclo[5.1.0]octan-2-yl)-2-(((2R,7aS)-2-fluorotetrahydro-1H-pyrrolizin-7a(5H)-yl)methoxy-d2)pyrido[4,3-d]pyrimidin-7-yl)-3-methyl-4-(trifluoromethyl) aniline]"
3,> 7.30,"[2H]C([2H])(F)Oc1c(F)ccc2cc(N)cc(-c3ncc4c(N5CCOC[C@H]6[C@H](F)[C@H]65)nc(OC[C@]56C/C(=C/F)CN5CCC65CC5)nc4c3F)c12 [Example 389, 6-fluoro-4-(8-fluoro-4-((1S,7S,8S)-8-fluoro-5-oxa-2-azabicyclo[5.1.0]octan-2-yl)-2-(((R,Z)-6′-(fluoromethylene)tetrahydrospiro[cyclopropane-1,1′-pyrrolizin]-7a′(5′H)-yl)methoxy)pyrido[4,3-d]pyrimidin-7-yl)-5-(fluoromethoxy-d2)naphthalen-2-amine]"
4,> 7.30,"[2H]C([2H])(Oc1nc(N2CCOC[C@H]3[C@H](F)[C@H]32)c2cnc(-c3cc(N)c(F)c(Cl)c3C(F)(F)F)c(F)c2n1)[C@@]12CCCN1C[C@H](F)C2 [Example 289, 3-chloro-2-fluoro-5-(8-fluoro-4-((1S,7S,8S)-8-fluoro-5-oxa-2-azabicyclo[5.1.0]octan-2-yl)-2-(((2R,7aS)-2-fluorotetrahydro-1H-pyrrolizin-7a(5H)-yl)methoxy-d2)pyrido[4,3-d]pyrimidin-7-yl)-4-(trifluoromethyl)aniline]"
5,> 7.30,"[2H]C([2H])(F)Oc1c(F)ccc2cc(N)cc(-c3ncc4c(N5CCCC[C@H]6[C@H](F)[C@H]65)nc(OC([2H])([2H])[C@@]56CCCN5C[C@H](F)C6)nc4c3F)c12 [Example 100, 6-Fluoro-4-(8-fluoro-4-((1S,7R,8S)-8-fluoro-2-azabicyclo[5.1.0]octan-2-yl)-2-(((2R,7aS)-2-fluorotetrahydro-1H-pyrrolizin-7a(5H)-yl)methoxy-d2)pyrido[4,3-d]pyrimidin-7-yl)-5-(fluoromethoxy-d2)naphthalen-2-amine]"
6,> 7.30,"[2H]C([2H])(Oc1nc(N2CCCO[C@H]3[C@H](F)[C@H]32)c2cnc(-c3cc(N)cc4c(F)cc(F)c(C#C)c34)c(F)c2n1)[C@@]12CCCN1C[C@H](F)C2 [Example 117, 5-ethynyl-6,8-difluoro-4-(8-fluoro-4-((1R,7S,8R)-8-fluoro-2-oxa-6-azabicyclo[5.1.0]octan-6-yl)-2-(((2R,7aS)-2-fluorotetrahydro-1H-pyrrolizin-7a(5H)-yl)methoxy-d2)pyrido[4,3-d]pyrimidin-7-yl)naphthalen-2-amine]"
7,> 7.30,"C#Cc1c(F)ccc2cc(N)cc(-c3ncc4c(N5CCOC[C@H]6[C@H](F)[C@H]65)nc(OC[C@]56C[C@@H](C)CN5CCC65CC5)nc4c3F)c12 (single isomer, unassigned) [Example 242]"
8,5.00 to 6.30,"[2H]C([2H])(Oc1nc(N2CCOC[C@H]3[C@H](F)[C@H]32)c2cnc(-c3cncc4ccc(F)c(Cl)c34)c(F)c2n1)[C@@]12CCCN1C[C@H](F)C2 [Example 113, (1S,7S,8S)-2-(7-(5-chloro-6-fluoroisoquinolin-4-yl)-8-fluoro-2-(((2R,7aS)-2-fluorotetrahydro-1H-pyrrolizin-7a(5H)-yl)methoxy-d2)pyrido[4,3-d]pyrimidin-4-yl)-8-fluoro-5-oxa-2-azabicyclo[5.1.0]octane]"
9,> 7.30,"[2H]C([2H])(F)Oc1c(F)cc(F)c2cc(N)cc(-c3ncc4c(N5CCCC[C@H]6[C@H](F)[C@H]65)nc(OC([2H])([2H])[C@@]56CCCN5C[C@H](F)C6)nc4c3F)c12 [Example 173, 6,8-difluoro-4-(8-fluoro-4-((1S,7R,8S)-8-fluoro-2-azabicyclo[5.1.0]octan-2-yl)-2-(((2R,7aS)-2-fluorotetrahydro-1H-pyrrolizin-7a(5H)-yl)methoxy-d2)pyrido[4,3-d]pyrimidin-7-yl)-5-(fluoromethoxy-d2)naphthalen-2-amine]"
10,> 7.30,"C#Cc1c(F)ccc2cccc(-c3ncc4c(N5CCOC[C@H]6[C@H](F)[C@H]65)nc(OC[C@@]56CCCN5CC(=C)C6)nc4c3F)c12 [Example 143, (1S,7S,8S)-2-(7-(8-ethynyl-7-fluoronaphthalen-1-yl)-8-fluoro-2-(((S)-2-methylenetetrahydro-1H-pyrrolizin-7a(5H)-yl)methoxy)pyrido[4,3-d]pyrimidin-4-yl)-8-fluoro-5-oxa-2-azabicyclo[5.1.0]octane]"
11,6.30 to 7.30,"[2H]C([2H])(Oc1nc(N2CCOC[C@H]3[C@H](F)[C@H]32)c2cnc(-c3c(F)c(N)c(F)c(C)c3C(F)(F)F)c(F)c2n1)[C@@]12CCCN1C[C@H](F)C2 [Example 279, 2,6-difluoro-3-(8-fluoro-4-((1S,7S,8S)-8-fluoro-5-oxa-2-azabicyclo[5.1.0]octan-2-yl)-2-(((2R,7aS)-2-fluorotetrahydro-1H-pyrrolizin-7a(5H)-yl)methoxy-d2)pyrido[4,3-d]pyrimidin-7-yl)-5-methyl-4-(trifluoromethyl)aniline]"
12,> 7.30,"[2H]C1([2H])CC2(CC2)[C@]2(C([2H])([2H])Oc3nc(N4CCOC[C@H]5[C@H](F)[C@H]54)c4cnc(-c5cc(N)cc6ccc(F)c(C#C)c56)c(F)c4n3)C[C@]([2H])(F)CN12 (single isomer, unassigned) [Example 204]"
13,> 7.30,"[2H]C([2H])(Oc1nc(N2CCCC[C@H]3[C@H](F)[C@H]32)c2cnc(-c3cncc4ccc(F)c(C#C)c34)c(F)c2n1)[C@@]12CCCN1C[C@H](F)C2 [Example 97, 7-(5-Ethynyl-6-fluoroisoquinolin-4-yl)-8-fluoro-4-((1S,7R,8S)-8-fluoro-2-azabicyclo[5.1.0]octan-2-yl)-2-(((2R,7aS)-2-fluorotetrahydro-1H-pyrrolizin-7a(5H)-yl)methoxy-d2)pyrido[4,3-d]pyrimidine]"
14,> 7.30,"[2H]C([2H])(F)Oc1c(F)ccc2cc(N)cc(-c3ncc4c(N5CCOC[C@H]6[C@H](F)[C@H]65)nc(OC[C@]56CC(=C)CN5CCC65CC5)nc4c3F)c12 [Example 387, 6-fluoro-4-(8-fluoro-4-((1S,7S,8S)-8-fluoro-5-oxa-2-azabicyclo[5.1.0]octan-2-yl)-2-(((R)-6′-methylenetetrahydrospiro[cyclopropane-1,1′-pyrrolizin]-7a′(5′H)-yl)methoxy)pyrido[4,3-d]pyrimidin-7-yl)-5-(fluoromethoxy-d2)naphthalen-2-amine]"

# Same assay, conditions: Homo sapiens, NCI-H441, pERK HTRF, NCI-H441 cells (KRAS G12V)
row,pIC50,Compound
1,> 7.30,"[2H]C([2H])(Oc1nc(N2CCCO[C@H]3[C@H](F)[C@H]32)c2cnc(-c3cccc4ccc(F)c(OCF)c34)c(F)c2n1)[C@@]12CCCN1C[C@H](F)C2 [Example 92, (1R,7S,8R)-8-Fluoro-6-(8-fluoro-7-(7-fluoro-8-(fluoromethoxy)naphthalen-1-yl)-2-(((2R,7aS)-2-fluorotetrahydro-1H-pyrrolizin-7a(5H)-yl)methoxy-d2)pyrido[4,3-d]pyrimidin-4-yl)-2-oxa-6-azabicyclo[5.1.0]octane]"
2,> 7.30,"[2H]C([2H])(Oc1nc(N2CCO[C@H]3[C@H](F)[C@H]32)c2cnc(-c3cc(N)cc4cc(F)c(F)c(C#C)c34)c(F)c2n1)[C@@]12CCCN1C[C@H](F)C2 [Example 38, 5-Ethynyl-6,7-difluoro-4-(8-fluoro-4-((1R,6S,7R)-7-fluoro-2-oxa-5-azabicyclo[4.1.0]heptan-5-yl)-2-(((2R,7aS)-2-fluorotetrahydro-1H-pyrrolizin-7a(5H)-yl)methoxy-d2)pyrido[4,3-d]pyrimidin-7-yl)naphthalen-2-amine]"
3,5.00 to 6.30,"[2H]C([2H])(Oc1nc(N2CCCCC[C@@H]3[C@@H](F)[C@@H]32)c2cnc(-c3cc(N)cc4cc(F)c(F)c(C#C)c34)c(F)c2n1)[C@@]12CCCN1C[C@H](F)C2 [Example 59, 5-Ethynyl-6,7-difluoro-4-(8-fluoro-4-((1R,8S,9R)-9-fluoro-2-azabicyclo[6.1.0]nonan-2-yl)-2-(((2R,7aS)-2-fluorotetrahydro-1H-pyrrolizin-7a(5H)-yl)methoxy-d2)pyrido[4,3-d]pyrimidin-7-yl)naphthalen-2-amine]"
4,5.00 to 6.30,"[2H]C([2H])(Oc1nc(N2CCC[C@H]3[C@@H](F)[C@H]32)c2cnc(-c3cc(N)cc4cc(F)c(F)c(C#C)c34)c(F)c2n1)[C@@]12CCCN1C[C@H](F)C2 [Example 64, 5-Ethynyl-6,7-difluoro-4-(8-fluoro-4-((1S,6R,7R)-7-fluoro-2-azabicyclo[4.1.0]heptan-2-yl)-2-(((2R,7aS)-2-fluorotetrahydro-1H-pyrrolizin-7a(5H)-yl)methoxy-d2)pyrido[4,3-d]pyrimidin-7-yl)naphthalen-2-amine]"

# Same assay, conditions: cellular pERK (Thr202/Tyr204) HTRF, NCI-H441 cells
row,pIC50,Compound
1,5.00 to 6.30,"[2H]C([2H])(Oc1nc(N2CCOC[C@H]3[C@H](F)[C@H]32)c2cc(C#N)c(-c3cc(N)cc4ccc(F)c(C#C)c34)c(F)c2n1)[C@@]12CCCN1C[C@H](F)C2 (atropisomer, axis not shown; (aS)) [Example 360, (R)-7-(3-amino-8-ethynyl-7-fluoronaphthalen-1-yl)-8-fluoro-4-((1S,7S,8S)-8-fluoro-5-oxa-2-azabicyclo[5.1.0]octan-2-yl)-2-(((2R,7aS)-2-fluorotetrahydro-1H-pyrrolizin-7a(5H)-yl)methoxy-d2)quinazoline-6-carbonitrile]"
